Reference: patent US20180221352A1, “3-(1H-PYRROLO[2,3-C]PYRIDIN-2-YL)-1H-PYRAZOLO[3,4-B]PYRIDINES AND THERAPEUTIC USES THEREOF” (Samumed, LLC, priority 2015, published 2018)

What was measured:
Assay type in all cases: cell-based
[1] = test system: IL-6; assay: IL-6 inhibition in LPS-stimulated THP-1 cells (HTRF); details: Homo sapiens; for inhibition at 10 µM: THP-1, read-out: percent inhibition at 10 μM; for EC50: THP-1 cells, LPS 500 ng/mL, 22 hours, IL6 HTRF
Procedure, shortened: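 Serum-reduced (1% FBS, 24 h) THP-1 cells, 5000/well, exposed to compound 2 h at 37 °C, then stimulated with 500 ng/mL LPS for 22 h. Secreted IL-6 measured by HTRF (665/620 ratio), normalised to DMSO; EC50 by four-parameter fit, duplicates.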

[2] = test system: primary human mesenchymal stem cells (hMSCs); assay: Induction of chondrogenesis in hMSCs (nodule count); details: 6 days; for EC50: concentration required to induce 50% levels of chondrogenesis vs TGF-β3, read-out: Conc (nM) of 50% TGF-β3 activity; for Emax: relative to TGF-β3 (10 ng/mL) positive control, read-out: Max. Activity as % TGF-β3 activity
Source text: Representative compounds were screened using primary human mesenchymal stem cells (hMSCs) to determine their ability to induce chondrogenesis (process by which cartilage is developed).
Primary human mesenchymal stem cells (hMSCs) were purchased from Lonza (Walkersville, Md.) and expanded in Mesenchymal Stem Cell Growth Media (Lonza). Cells between passage 3 and 6 were used for the experiments.
To image chondrogenic nodules, the cells were fixed using 4% formaldehyde (Electron Microscopy Sciences), and stained with 2 μg/mL Rhodamine B (Sigma-Aldrich) and 20 μM Nile Red (Sigma-Aldrich) [Johnson K., et. al, A Stem Cell-Based Approach to Cartilage Repair, Science, (2012). […] Number of nodules in each well was normalized to the average of 3 DMSO treated wells on the same plate using Excel (Microsoft Inc.). The normalized averages (fold change over DMSO) of 3 replicate wells for each compound concentration were calculated. Due to solubility limitations of some of the compounds, curve fitting was incomplete leading to inaccurate EC50 determinations.
Using TGF-β3 as a positive control, the concentration of representative compounds required to induce 50% levels of chondrogenesis is reported. In addition, the maximum activity of each compound and the respective dose that each compound reached maximum chondrogenesis activity is reported.

[3] = test system: SW480 colon cancer cells; assay: Cell viability assay (CellTiter-Blue); details: Homo sapiens; for EC50: 96 h, SW480 cell viability, four days; for inhibition at 10 µM: SW480, 96 h, read-out: percent inhibition at 10 μM
Procedure, shortened: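 Fluorescence from resazurin reduced to resorufin by metabolically active cells was the read-out, taken after ~3 h with CellTiter-Blue.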

[4] = test system: Wnt activity (Sp5-Luc reporter, SW480 colon carcinoma cells); assay: Wnt activity screening assay, Sp5-Luc reporter gene in SW480 cells; details: Homo sapiens; for inhibition at 10 µM: SW480, read-out: percent inhibition at 10 μM; for EC50: Sp5-Luc reporter, SW480 cells, overnight incubation
Procedure, shortened: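 SW480 cells stably carrying a luciferase reporter driven by an Sp5 promoter with eight TCF/LEF sites, plated overnight in 1% FBS medium at 37 °C. Luminescence read with BrightGlo. Signals normalized to DMSO-treated cells; EC50 from four-parameter variable-slope fit.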

[5] = test system: primary human fibroblasts derived from IPF patients (LL29 cells); assay: Inhibition of fibrotic process, αSMA staining in TGF-β1 treated fibroblasts; details: Fibroblast; for EC50: 96 h, LL29 cells, TGF-β1 20 ng/mL, 4 days, % αSMA positive cells; for inhibition at 10 µM: read-out: percent inhibition at 10 μM
Procedure, shortened: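 LL29 fibroblasts plated in F12 with 1% FBS were stimulated with TGF-β1 alongside compound, with TGF-β1 plus DMSO wells as controls. After 4 days of incubation, SYTOX green was added at 1 μM final for 30 min at room temperature.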

EC50 [1] [µM] | EC50 [2] [nM] | EC50 [3] [µM] | EC50 [4] [µM] | Compound | inhibition at 10 µM [1] [%] | Emax [2] [%] | inhibition at 10 µM [3] [%] | inhibition at 10 µM [4] [%] | EC50 [5] [µM] | inhibition at 10 µM [5] [%]
> 10 | 100 | > 10 | > 10 | O=C(Nc1cncc(-c2cnc3[nH]nc(-c4cc5c(-c6cccnc6)cncc5[nH]4)c3c2)c1)c1ccccc1 [Compound 95, N-(5-(3-(4-(Pyridin-3-yl)-1H-pyrrolo[2,3-c]pyridin-2-yl)-1H-pyrazolo[3,4-b]pyridin-5-yl)pyridin-3-yl)benzamide] | 46.5 | 155 | 8.7 | 0 | > 10 | 0
0.647 | – | > 10 | > 10 | CC(C)(C)CC(=O)Nc1cncc(-c2cnc3[nH]nc(-c4cc5c(-c6cccnc6)cncc5[nH]4)c3c2)c1 [Compound 100, 3,3-Dimethyl-N-(5-(3-(4-(pyridin-3-yl)-1H-pyrrolo[2,3-c]pyridin-2-yl)-1H-pyrazolo[3,4-b]pyridin-5-yl)pyridin-3-yl)butanamide] | – | 37 | 18.4 | 17.3 | 1.91 | –
6.59 | – | > 10 | > 10 | c1cncc(-c2cncc3[nH]c(-c4n[nH]c5ncc(-c6cncnc6)cc45)cc23)c1 [Compound 111, 3-(4-(Pyridin-3-yl)-1H-pyrrolo[2,3-c]pyridin-2-yl)-5-(pyrimidin-5-yl)-1H-pyrazolo[3,4-b]pyridine] | – | 24 | 8.6 | 11.9 | 1.72 | –
0.412 | – | > 10 | > 10 | Nc1cncc(-c2cnc3[nH]nc(-c4cc5c(-c6ccncc6)cncc5[nH]4)c3c2)c1 [Compound 115, 5-(3-(4-(Pyridin-4-yl)-1H-pyrrolo[2,3-c]pyridin-2-yl)-1H-pyrazolo[3,4-b]pyridin-5-yl)pyridin-3-amine] | – | 32 | 17.8 | 13.9 | 3.55 | –
> 10 | 10 | > 10 | > 10 | CN(C)c1cncc(-c2cnc3[nH]nc(-c4cc5c(-c6ccncc6)cncc5[nH]4)c3c2)c1 [Compound 119, N,N-Dimethyl-5-(3-(4-(pyridin-4-yl)-1H-pyrrolo[2,3-c]pyridin-2-yl)-1H-pyrazolo[3,4-b]pyridin-5-yl)pyridin-3-amine] | 40.7 | 191 | 8.9 | 2.5 | > 10 | 0
0.196 | – | > 10 | > 10 | CC(C)(C)C(=O)Nc1cncc(-c2cnc3[nH]nc(-c4cc5c(-c6ccncc6)cncc5[nH]4)c3c2)c1 [Compound 120, N-(5-(3-(4-(Pyridin-4-yl)-1H-pyrrolo[2,3-c]pyridin-2-yl)-1H-pyrazolo[3,4-b]pyridin-5-yl)pyridin-3-yl)pivalamide] | – | 34 | 13.5 | 5 | 2.72 | –
> 10 | 10 | > 10 | > 10 | CCCCC(=O)Nc1cncc(-c2cnc3[nH]nc(-c4cc5c(-c6ccncc6)cncc5[nH]4)c3c2)c1 [Compound 131, N-(5-(3-(4-(Pyridin-4-yl)-1H-pyrrolo[2,3-c]pyridin-2-yl)-1H-pyrazolo[3,4-b]pyridin-5-yl)pyridin-3-yl)pentanamide] | 24.5 | 70 | 18.9 | 3.4 | > 10 | 27.9
> 10 | – | > 10 | > 10 | O=C(Nc1cncc(-c2cnc3[nH]nc(-c4cc5c(-c6ccncc6)cncc5[nH]4)c3c2)c1)C1CCC1 [Compound 133, N-(5-(3-(4-(Pyridin-4-yl)-1H-pyrrolo[2,3-c]pyridin-2-yl)-1H-pyrazolo[3,4-b]pyridin-5-yl)pyridin-3-yl)cyclobutanecarboxamide] | 43.3 | 43 | 18.9 | 7 | 4.92 | –
0.486 | – | > 10 | > 10 | FC1(F)CCN(Cc2cncc(-c3cnc4[nH]nc(-c5cc6c(-c7ccncc7)cncc6[nH]5)c4c3)c2)C1 [Compound 138, 5-(5-((3,3-Difluoropyrrolidin-1-yl)methyl)pyridin-3-yl)-3-(4-(pyridin-4-yl)-1H-pyrrolo[2,3-c]pyridin-2-yl)-1H-pyrazolo[3,4-b]pyridine] | – | 37 | 24.1 | 40.8 | 0.875 | –
> 10 | – | 3.69 | 4.88 | c1cc2cc(-c3n[nH]c4ncc(-c5cncc(CN6CCCC6)c5)cc34)[nH]c2cn1 [Compound 266, 5-(5-(Pyrrolidin-1-ylmethyl)pyridin-3-yl)-3-(1H-pyrrolo[2,3-c]pyridin-2-yl)-1H-pyrazolo[3,4-b]pyridine] | 47.6 | 36 | – | – | > 10 | 12.9
0.395 | 2700 | 3.43 | 3.58 | O=C(Nc1cncc(-c2cnc3[nH]nc(-c4cc5ccncc5[nH]4)c3c2)c1)C1CCCCC1 [Compound 275, N-(5-(3-(1H-Pyrrolo[2,3-c]pyridin-2-yl)-1H-pyrazolo[3,4-b]pyridin-5-yl)pyridin-3-yl)cyclohexanecarboxamide] | – | 291 | – | – | 1.7 | –
1.17 | – | 7.2 | 2.55 | CC(C)CC(=O)Nc1cncc(-c2cnc3[nH]nc(-c4cc5c(-c6cc(F)cc(CNS(C)(=O)=O)c6)cncc5[nH]4)c3c2)c1 [Compound 478, N-(5-(3-(4-(3-Fluoro-5-(methylsulfonamidomethyl)phenyl)-1H-pyrrolo[2,3-c]pyridin-2-yl)-1H-pyrazolo[3,4-b]pyridin-5-yl)pyridin-3-yl)-3-methylbutanamide] | – | 46 | – | – | > 10 | 21.2
0.237 | 2700 | 3.65 | 1.46 | CS(=O)(=O)NCc1cc(F)cc(-c2cncc3[nH]c(-c4n[nH]c5ncc(-c6cccnc6)cc45)cc23)c1 [Compound 480, N-(3-Fluoro-5-(2-(5-(pyridin-3-yl)-1H-pyrazolo[3,4-b]pyridin-3-yl)-1H-pyrrolo [2,3-c]pyridin-4-yl)benzyl)methane sulfonamide] | – | 66 | – | – | 2.24 | –
> 10 | – | > 10 | > 10 | CCNCc1cncc(-c2cnc3[nH]nc(-c4cc5c(-c6cc(F)cc(CNS(C)(=O)=O)c6)cncc5[nH]4)c3c2)c1 [Compound 482, N-(3-(2-(5-(5-((Ethylamino)methyl)pyridin-3-yl)-1H-pyrazolo[3,4-b]pyridin-3-yl)-1H-pyrrolo[2,3-c]pyridin-4-yl)-5-fluorobenzyl)methanesulfonamide] | 47.9 | 43 | 7 | 12.8 | 5.03 | –
0.027 | 30 | > 10 | > 10 | CC(C)C(=O)Nc1cncc(-c2cnc3[nH]nc(-c4cc5c(-c6cc(F)cc(CNS(C)(=O)=O)c6)cncc5[nH]4)c3c2)c1 [Compound 485, N-(5-(3-(4-(3-Fluoro-5-(methylsulfonamidomethyl)phenyl)-1H-pyrrolo[2,3-c]pyridin-2-yl)-1H-pyrazolo[3,4-b]pyridin-5-yl)pyridin-3-yl)isobutyramide] | – | 60 | 14 | 49.8 | > 10 | 0
